{"source": "ChEMBL document CHEMBL1671762", "about": "“Tolerance of benznidazole in treatment of Chagas' disease in adults” (Antimicrob Agents Chemother, 2010)", "key": {"Homo sapiens [1]": {"organism": "Homo sapiens", "test": "Toxicity in human patient infected with Trypanosoma cruzi assessed as occurrence of agranulocytosis after 2nd week of treatment", "assay_type": "organism-based", "conditions": "in vivo"}, "Homo sapiens [2]": {"tested_on": "Homo sapiens", "test": "Toxicity in human patient infected with Trypanosoma cruzi assessed as occurrence of Headache at 5 mg/kg/day for 60 days", "assay_type": "organism-based", "conditions": "in vivo, 1440 h"}, "Homo sapiens [3]": {"tested_on": "Homo sapiens", "test": "Toxicity in human patient infected with Trypanosoma cruzi assessed as occurrence of Dermatological disorder at 5 mg/kg/day for 60 days", "assay_type": "organism-based", "conditions": "in vivo, 1440 h"}, "Homo sapiens [4]": {"tested_on": "Homo sapiens", "test": "Toxicity in human patient infected with Trypanosoma cruzi assessed as occurrence of Urticaria at 5 mg/kg/day for 60 days", "assay_type": "organism-based", "conditions": "in vivo, 1440 h"}, "Homo sapiens [5]": {"tested_on": "Homo sapiens", "test": "Toxicity in human patient infected with Trypanosoma cruzi assessed as occurrence of Petechial rash at 5 mg/kg/day for 60 days", "assay_type": "organism-based", "conditions": "in vivo, 1440 h"}, "Homo sapiens [6]": {"tested_on": "Homo sapiens", "test": "Toxicity in human patient infected with Trypanosoma cruzi assessed as occurrence of Itching at 5 mg/kg/day for 60 days", "assay_type": "organism-based", "conditions": "in vivo, 1440 h"}, "Homo sapiens [7]": {"tested_on": "Homo sapiens", "test": "Toxicity in human patient infected with Trypanosoma cruzi assessed as occurrence of Palmar-plantar rash at 5 mg/kg/day for 60 days", "assay_type": "organism-based", "conditions": "in vivo, 1440 h"}, "Homo sapiens [8]": {"tested_on": "Homo sapiens", "test": "Toxicity in human patient infected with Trypanosoma cruzi assessed as occurrence of Edema at 5 mg/kg/day for 60 days", "assay_type": "organism-based", "conditions": "in vivo, 1440 h"}, "Homo sapiens [9]": {"tested_on": "Homo sapiens", "test": "Toxicity in human patient infected with Trypanosoma cruzi assessed as occurrence of Dyshidrosis at 5 mg/kg/day for 60 days", "assay_type": "organism-based", "conditions": "in vivo, 1440 h"}, "Homo sapiens [10]": {"tested_on": "Homo sapiens", "test": "Toxicity in human patient infected with Trypanosoma cruzi assessed as occurrence of Hyperpigmentation at 5 mg/kg/day for 60 days", "assay_type": "organism-based", "conditions": "in vivo, 1440 h"}, "Homo sapiens [11]": {"tested_on": "Homo sapiens", "test": "Toxicity in human patient infected with Trypanosoma cruzi assessed as occurrence of Erythema nodosum at 5 mg/kg/day for 60 days", "assay_type": "organism-based", "conditions": "in vivo, 1440 h"}, "Homo sapiens [12]": {"tested_on": "Homo sapiens", "test": "Toxicity in human patient infected with Trypanosoma cruzi assessed as occurrence of Mucositis at 5 mg/kg/day for 60 days", "assay_type": "organism-based", "conditions": "in vivo, 1440 h"}, "Homo sapiens [13]": {"tested_on": "Homo sapiens", "test": "Toxicity in human patient infected with Trypanosoma cruzi assessed as occurrence of Anorexia at 5 mg/kg/day for 60 days", "assay_type": "organism-based", "conditions": "in vivo, 1440 h"}, "Homo sapiens [14]": {"tested_on": "Homo sapiens", "test": "Toxicity in human patient infected with Trypanosoma cruzi assessed as occurrence of Weakness at 5 mg/kg/day for 60 days", "assay_type": "organism-based", "conditions": "in vivo, 1440 h"}, "Homo sapiens [15]": {"tested_on": "Homo sapiens", "test": "Toxicity in human patient infected with Trypanosoma cruzi assessed as occurrence of Fever at 5 mg/kg/day for 60 days", "assay_type": "organism-based", "conditions": "in vivo, 1440 h"}, "Homo sapiens [16]": {"tested_on": "Homo sapiens", "test": "Toxicity in human patient infected with Trypanosoma cruzi assessed as occurrence of Articular involvement at 5 mg/kg/day for 60 days", "assay_type": "organism-based", "conditions": "in vivo, 1440 h"}, "Homo sapiens [17]": {"tested_on": "Homo sapiens", "test": "Toxicity in human patient infected with Trypanosoma cruzi assessed as occurrence of Arthromyalgia at 5 mg/kg/day for 60 days", "assay_type": "organism-based", "conditions": "in vivo, 1440 h"}, "Homo sapiens [18]": {"tested_on": "Homo sapiens", "test": "Toxicity in human patient infected with Trypanosoma cruzi assessed as occurrence of Arthritis at 5 mg/kg/day for 60 days", "assay_type": "organism-based", "conditions": "in vivo, 1440 h"}, "Homo sapiens [19]": {"tested_on": "Homo sapiens", "test": "Toxicity in human patient infected with Trypanosoma cruzi assessed as occurrence of Paresthesia at 5 mg/kg/day for 60 days", "assay_type": "organism-based", "conditions": "in vivo, 1440 h"}, "Homo sapiens [20]": {"tested_on": "Homo sapiens", "test": "Toxicity in human patient infected with Trypanosoma cruzi assessed as occurrence of Gastrointestinal disorders at 5 mg/kg/day for 60 days", "assay_type": "organism-based", "conditions": "in vivo, 1440 h"}, "Homo sapiens [21]": {"tested_on": "Homo sapiens", "test": "Toxicity in human patient infected with Trypanosoma cruzi assessed as occurrence of Epigastralgia at 5 mg/kg/day for 60 days", "assay_type": "organism-based", "conditions": "in vivo, 1440 h"}, "Homo sapiens [22]": {"tested_on": "Homo sapiens", "test": "Toxicity in human patient infected with Trypanosoma cruzi assessed as occurrence of Nausea at 5 mg/kg/day for 60 days", "assay_type": "organism-based", "conditions": "in vivo, 1440 h"}, "Homo sapiens [23]": {"tested_on": "Homo sapiens", "test": "Toxicity in human patient infected with Trypanosoma cruzi assessed as occurrence of Dysphagia at 5 mg/kg/day for 60 days", "assay_type": "organism-based", "conditions": "in vivo, 1440 h"}, "Homo sapiens [24]": {"tested_on": "Homo sapiens", "test": "Toxicity in human patient infected with Trypanosoma cruzi assessed as occurrence of Abdominal bloating at 5 mg/kg/day for 60 days", "assay_type": "organism-based, Abdomen", "conditions": "in vivo, 1440 h"}, "Homo sapiens [25]": {"tested_on": "Homo sapiens", "test": "Toxicity in human patient infected with Trypanosoma cruzi assessed as occurrence of Heartburn at 5 mg/kg/day for 60 days", "assay_type": "organism-based", "conditions": "in vivo, 1440 h"}, "Homo sapiens [26]": {"tested_on": "Homo sapiens", "test": "Toxicity in human patient infected with Trypanosoma cruzi assessed as occurrence of Vomiting at 5 mg/kg/day for 60 days", "assay_type": "organism-based", "conditions": "in vivo, 1440 h"}, "Homo sapiens [27]": {"tested_on": "Homo sapiens", "test": "Toxicity in human patient infected with Trypanosoma cruzi assessed as occurrence of Diarrhea at 5 mg/kg/day for 60 days", "assay_type": "organism-based", "conditions": "in vivo, 1440 h"}, "Homo sapiens [28]": {"tested_on": "Homo sapiens", "test": "Toxicity in human patient infected with Trypanosoma cruzi assessed as occurrence of Aphthous stomatitis at 5 mg/kg/day for 60 days", "assay_type": "organism-based", "conditions": "in vivo, 1440 h"}, "Homo sapiens [29]": {"tested_on": "Homo sapiens", "test": "Toxicity in human patient infected with Trypanosoma cruzi assessed as occurrence of Hearing impairment at 5 mg/kg/day for 60 days", "assay_type": "organism-based", "conditions": "in vivo, 1440 h"}, "Homo sapiens [30]": {"tested_on": "Homo sapiens", "test": "Toxicity in human patient infected with Trypanosoma cruzi assessed as occurrence of cardiac disorders at 5 mg/kg/day for 60 days", "assay_type": "organism-based, Heart", "conditions": "in vivo, 1440 h"}, "Homo sapiens [31]": {"tested_on": "Homo sapiens", "test": "Toxicity in human patient infected with Trypanosoma cruzi assessed as occurrence of dolichocolon at 5 mg/kg/day for 60 days", "assay_type": "organism-based, Colon", "conditions": "in vivo, 1440 h"}, "Homo sapiens [32]": {"organism": "Homo sapiens", "test": "Toxicity in human patient infected with Trypanosoma cruzi assessed as occurrence of hypersensitivity on day 7 to 10", "assay_type": "organism-based", "conditions": "in vivo"}, "Homo sapiens [33]": {"organism": "Homo sapiens", "test": "Toxicity in human patient infected with Trypanosoma cruzi assessed as occurrence of dermatitis with cutaneous eruptions on day 7 to 10", "assay_type": "organism-based", "conditions": "in vivo"}, "Homo sapiens [34]": {"organism": "Homo sapiens", "test": "Toxicity in human patient infected with Trypanosoma cruzi assessed as occurrence of myalgias", "assay_type": "organism-based", "conditions": "in vivo"}, "Homo sapiens [35]": {"organism": "Homo sapiens", "test": "Toxicity in human patient infected with Trypanosoma cruzi assessed as occurrence of arthralgias", "assay_type": "organism-based", "conditions": "in vivo"}, "Homo sapiens [36]": {"organism": "Homo sapiens", "test": "Toxicity in human patient infected with Trypanosoma cruzi assessed as occurrence of lymphadenopathy", "assay_type": "organism-based", "conditions": "in vivo"}, "Homo sapiens [37]": {"organism": "Homo sapiens", "test": "Toxicity in human patient infected with Trypanosoma cruzi assessed as occurrence of polyneuropathy on 4th week of treatment", "assay_type": "organism-based", "conditions": "in vivo"}, "Homo sapiens [38]": {"organism": "Homo sapiens", "test": "Toxicity in human patient infected with Trypanosoma cruzi assessed as occurrence of paresthesias on 4th week of treatment", "assay_type": "organism-based", "conditions": "in vivo"}, "Homo sapiens [39]": {"organism": "Homo sapiens", "test": "Toxicity in human patient infected with Trypanosoma cruzi assessed as occurrence of polyneuritis on 4th week of treatment", "assay_type": "organism-based", "conditions": "in vivo"}, "Homo sapiens [40]": {"organism": "Homo sapiens", "test": "Toxicity in human patient infected with Trypanosoma cruzi assessed as occurrence of thrombopenic purpura after 2nd week of treatment", "assay_type": "organism-based", "conditions": "in vivo"}}}
{"smiles": "O=C(Cn1ccnc1[N+](=O)[O-])NCc1ccccc1", "note": "[BENZNIDAZOLE]", "values": [{"measurement": "Activity", "setting": "Homo sapiens [1]", "result": "Toxic"}, {"measurement": "Activity", "setting": "Homo sapiens [2]", "result": 56.2, "unit": "%"}, {"measurement": "Activity", "setting": "Homo sapiens [3]", "result": 50.5, "unit": "%"}, {"measurement": "Activity", "setting": "Homo sapiens [4]", "result": 43.4, "unit": "%"}, {"measurement": "Activity", "setting": "Homo sapiens [5]", "result": 35.8, "unit": "%"}, {"measurement": "Activity", "setting": "Homo sapiens [6]", "result": 13.2, "unit": "%"}, {"measurement": "Activity", "setting": "Homo sapiens [7]", "result": "Toxic"}, {"measurement": "Activity", "setting": "Homo sapiens [8]", "result": "Toxic"}, {"measurement": "Activity", "setting": "Homo sapiens [9]", "result": "Toxic"}, {"measurement": "Activity", "setting": "Homo sapiens [10]", "result": "Toxic"}, {"measurement": "Activity", "setting": "Homo sapiens [11]", "result": "Toxic"}, {"measurement": "Activity", "setting": "Homo sapiens [12]", "result": "Toxic"}, {"measurement": "Activity", "setting": "Homo sapiens [13]", "result": 40, "unit": "%"}, {"measurement": "Activity", "setting": "Homo sapiens [14]", "result": 30, "unit": "%"}, {"measurement": "Activity", "setting": "Homo sapiens [15]", "result": 11, "unit": "%"}, {"measurement": "Activity", "setting": "Homo sapiens [16]", "result": 36.2, "unit": "%"}, {"measurement": "Activity", "setting": "Homo sapiens [17]", "result": "Toxic"}, {"measurement": "Activity", "setting": "Homo sapiens [18]", "result": "Toxic"}, {"measurement": "Activity", "setting": "Homo sapiens [19]", "result": 27.6, "unit": "%"}, {"measurement": "Activity", "setting": "Homo sapiens [20]", "result": 15, "unit": "%"}, {"measurement": "Activity", "setting": "Homo sapiens [21]", "result": "Toxic"}, {"measurement": "Activity", "setting": "Homo sapiens [22]", "result": "Toxic"}, {"measurement": "Activity", "setting": "Homo sapiens [23]", "result": "Toxic"}, {"measurement": "Activity", "setting": "Homo sapiens [24]", "result": "Toxic"}, {"measurement": "Activity", "setting": "Homo sapiens [25]", "result": "Toxic"}, {"measurement": "Activity", "setting": "Homo sapiens [26]", "result": "Toxic"}, {"measurement": "Activity", "setting": "Homo sapiens [27]", "result": "Toxic"}, {"measurement": "Activity", "setting": "Homo sapiens [28]", "result": 1, "unit": "%"}, {"measurement": "Activity", "setting": "Homo sapiens [29]", "result": 1, "unit": "%"}, {"measurement": "Activity", "setting": "Homo sapiens [30]", "result": 12.4, "unit": "%"}, {"measurement": "Activity", "setting": "Homo sapiens [31]", "result": 1.9, "unit": "%"}, {"measurement": "Activity", "setting": "Homo sapiens [32]", "result": "Toxic"}, {"measurement": "Activity", "setting": "Homo sapiens [33]", "result": "Toxic"}, {"measurement": "Activity", "setting": "Homo sapiens [34]", "result": "Toxic"}, {"measurement": "Activity", "setting": "Homo sapiens [35]", "result": "Toxic"}, {"measurement": "Activity", "setting": "Homo sapiens [36]", "result": "Toxic"}, {"measurement": "Activity", "setting": "Homo sapiens [37]", "result": "Toxic"}, {"measurement": "Activity", "setting": "Homo sapiens [38]", "result": "Toxic"}, {"measurement": "Activity", "setting": "Homo sapiens [39]", "result": "Toxic"}, {"measurement": "Activity", "setting": "Homo sapiens [40]", "result": "Toxic"}]}
